Measured values published in patent US20120270237A9, “METHODS FOR THE IDENTIFICATION OF KINASE INTERACTING MOLECULES AND FOR THE PURIFICATION OF KINASE PROTEINS” (Cellzone AG, priority 2009, published 2012).

What was measured:
Assay in all cases: Kinobeads competition binding, HeLa Placenta lysate mix
Design in all cases: endogenous in cells
Conditions in all cases: 10 μM free compound
MPSK1 = MPSK1 (Homo sapiens, UniProt O75716)
Protocol: (§1) To one aliquot of cell lysate 10 μM of the free compound (FIG. 3, CZC31326) was added and allowed to bind to proteins in the lysate. Then the affinity matrix with the immobilized compound was added to capture proteins that were not interacting with the previously added free compound. Beads were separated from the lysate and bead bound proteins were eluted in SDS sample buffer and subsequently separated by SDS-Polyacrylamide gel electrophoresis (FIG. 10). Suitable gel bands were cut out and subjected to in-gel proteolytic digestion with trypsin. The second lysate aliquot was processed identically, however no free compound was added (DMSO solvent control). Peptides originating from samples 1 and 2 were labeled with iTRAQ reagents (iTRAQ 114 and iTRAQ 117) and the combined samples were analyzed with a nano-flow liquid chromatography system coupled online to a tandem mass spectrometer (LC-MS/MS) experiment followed by iTRAQ reporter ion quantification in the MS/MS spectra as described in Example 2.

CDK5 = CDK5 (Homo sapiens, UniProt Q00535)
Sequence of CDK5 (Q00535 whole entry): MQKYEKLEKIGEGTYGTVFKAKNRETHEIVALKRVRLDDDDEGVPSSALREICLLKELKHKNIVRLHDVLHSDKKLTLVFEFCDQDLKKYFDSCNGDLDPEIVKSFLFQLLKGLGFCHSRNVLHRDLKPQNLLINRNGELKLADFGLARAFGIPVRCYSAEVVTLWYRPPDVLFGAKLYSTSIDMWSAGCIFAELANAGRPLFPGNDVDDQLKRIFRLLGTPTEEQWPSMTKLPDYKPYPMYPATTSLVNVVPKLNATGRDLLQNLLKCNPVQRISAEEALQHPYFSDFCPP
Protocol: as §1

TAO3 = biological target: T1, TAO3 (Homo sapiens, UniProt Q9H2K8)
T1 sequence (Q9H2K8 1-898): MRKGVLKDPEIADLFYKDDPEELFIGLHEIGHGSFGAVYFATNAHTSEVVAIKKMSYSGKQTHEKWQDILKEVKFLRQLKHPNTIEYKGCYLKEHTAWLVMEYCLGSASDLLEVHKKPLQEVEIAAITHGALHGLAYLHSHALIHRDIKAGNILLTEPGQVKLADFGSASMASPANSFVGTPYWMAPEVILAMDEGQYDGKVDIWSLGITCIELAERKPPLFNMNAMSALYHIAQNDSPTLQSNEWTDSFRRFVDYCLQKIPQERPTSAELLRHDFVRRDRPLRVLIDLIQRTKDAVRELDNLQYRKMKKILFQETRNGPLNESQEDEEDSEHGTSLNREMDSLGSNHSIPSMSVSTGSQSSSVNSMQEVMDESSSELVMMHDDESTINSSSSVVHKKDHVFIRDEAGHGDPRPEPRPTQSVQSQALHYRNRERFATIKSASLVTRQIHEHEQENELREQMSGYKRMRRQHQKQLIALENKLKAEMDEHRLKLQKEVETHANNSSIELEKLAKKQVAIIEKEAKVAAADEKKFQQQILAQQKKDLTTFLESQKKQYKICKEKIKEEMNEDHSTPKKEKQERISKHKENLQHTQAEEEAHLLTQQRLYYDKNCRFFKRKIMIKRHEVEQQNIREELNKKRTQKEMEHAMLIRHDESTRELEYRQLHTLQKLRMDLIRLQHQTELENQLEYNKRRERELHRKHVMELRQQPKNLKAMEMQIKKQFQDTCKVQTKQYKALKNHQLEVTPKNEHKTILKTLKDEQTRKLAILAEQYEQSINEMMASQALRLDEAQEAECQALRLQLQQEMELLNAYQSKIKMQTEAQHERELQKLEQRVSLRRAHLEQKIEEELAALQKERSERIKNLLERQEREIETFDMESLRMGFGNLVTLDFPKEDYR
Protocol: as §1

PIP5K2A = biological target: T2, PIP5K2A (Homo sapiens, UniProt P48426)
T2 sequence (P48426 1-406): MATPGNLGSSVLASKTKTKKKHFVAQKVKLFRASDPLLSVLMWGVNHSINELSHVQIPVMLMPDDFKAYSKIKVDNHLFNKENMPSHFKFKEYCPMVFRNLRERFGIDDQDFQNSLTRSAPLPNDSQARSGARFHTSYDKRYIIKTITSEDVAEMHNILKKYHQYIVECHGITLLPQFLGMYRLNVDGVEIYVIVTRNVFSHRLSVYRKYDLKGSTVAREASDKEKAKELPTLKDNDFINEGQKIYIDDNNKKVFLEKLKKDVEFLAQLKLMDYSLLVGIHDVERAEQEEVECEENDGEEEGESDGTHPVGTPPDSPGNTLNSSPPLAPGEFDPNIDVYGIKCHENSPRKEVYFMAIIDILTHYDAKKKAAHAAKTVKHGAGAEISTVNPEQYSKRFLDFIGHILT
Protocol: as §1

FER = FER (Homo sapiens, UniProt P16591)
Sequence of FER (P16591 whole entry): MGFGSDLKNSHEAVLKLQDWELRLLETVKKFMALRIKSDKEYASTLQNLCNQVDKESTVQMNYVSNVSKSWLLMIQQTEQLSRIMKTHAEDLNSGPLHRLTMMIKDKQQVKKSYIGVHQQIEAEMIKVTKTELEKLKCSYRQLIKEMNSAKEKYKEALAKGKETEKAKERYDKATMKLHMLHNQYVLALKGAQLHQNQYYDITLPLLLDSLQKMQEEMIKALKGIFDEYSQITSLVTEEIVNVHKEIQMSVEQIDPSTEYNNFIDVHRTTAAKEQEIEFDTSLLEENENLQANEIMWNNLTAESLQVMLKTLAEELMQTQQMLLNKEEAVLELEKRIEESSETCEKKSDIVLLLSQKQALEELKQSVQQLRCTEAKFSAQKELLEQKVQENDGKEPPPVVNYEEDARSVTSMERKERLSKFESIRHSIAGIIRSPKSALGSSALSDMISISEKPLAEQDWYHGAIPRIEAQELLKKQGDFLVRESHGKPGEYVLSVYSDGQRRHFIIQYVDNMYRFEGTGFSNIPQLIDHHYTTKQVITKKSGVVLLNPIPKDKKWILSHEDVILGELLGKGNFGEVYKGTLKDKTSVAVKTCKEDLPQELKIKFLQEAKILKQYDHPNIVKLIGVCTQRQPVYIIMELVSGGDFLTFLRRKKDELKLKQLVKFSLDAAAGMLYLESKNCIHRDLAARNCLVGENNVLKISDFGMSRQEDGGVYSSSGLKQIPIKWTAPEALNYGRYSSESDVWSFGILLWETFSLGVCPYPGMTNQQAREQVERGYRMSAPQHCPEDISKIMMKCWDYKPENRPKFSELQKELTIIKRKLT
Protocol: as §1

Erk1 = Erk1 (Homo sapiens, UniProt P27361)
Sequence of Erk1 (P27361 whole entry): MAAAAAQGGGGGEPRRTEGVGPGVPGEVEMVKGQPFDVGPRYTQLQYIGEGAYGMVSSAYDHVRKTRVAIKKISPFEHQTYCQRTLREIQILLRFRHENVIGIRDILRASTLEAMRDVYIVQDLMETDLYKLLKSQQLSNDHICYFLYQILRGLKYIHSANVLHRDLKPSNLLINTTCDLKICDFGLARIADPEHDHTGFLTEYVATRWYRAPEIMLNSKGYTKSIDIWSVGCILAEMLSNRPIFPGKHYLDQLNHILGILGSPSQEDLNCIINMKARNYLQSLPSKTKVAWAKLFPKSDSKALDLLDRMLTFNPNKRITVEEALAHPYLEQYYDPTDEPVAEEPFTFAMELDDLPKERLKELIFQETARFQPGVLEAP
Protocol: as §1

IKKe = biological target: T3, IKKe (Homo sapiens, UniProt Q14164)
T3 sequence (Q14164 1-716): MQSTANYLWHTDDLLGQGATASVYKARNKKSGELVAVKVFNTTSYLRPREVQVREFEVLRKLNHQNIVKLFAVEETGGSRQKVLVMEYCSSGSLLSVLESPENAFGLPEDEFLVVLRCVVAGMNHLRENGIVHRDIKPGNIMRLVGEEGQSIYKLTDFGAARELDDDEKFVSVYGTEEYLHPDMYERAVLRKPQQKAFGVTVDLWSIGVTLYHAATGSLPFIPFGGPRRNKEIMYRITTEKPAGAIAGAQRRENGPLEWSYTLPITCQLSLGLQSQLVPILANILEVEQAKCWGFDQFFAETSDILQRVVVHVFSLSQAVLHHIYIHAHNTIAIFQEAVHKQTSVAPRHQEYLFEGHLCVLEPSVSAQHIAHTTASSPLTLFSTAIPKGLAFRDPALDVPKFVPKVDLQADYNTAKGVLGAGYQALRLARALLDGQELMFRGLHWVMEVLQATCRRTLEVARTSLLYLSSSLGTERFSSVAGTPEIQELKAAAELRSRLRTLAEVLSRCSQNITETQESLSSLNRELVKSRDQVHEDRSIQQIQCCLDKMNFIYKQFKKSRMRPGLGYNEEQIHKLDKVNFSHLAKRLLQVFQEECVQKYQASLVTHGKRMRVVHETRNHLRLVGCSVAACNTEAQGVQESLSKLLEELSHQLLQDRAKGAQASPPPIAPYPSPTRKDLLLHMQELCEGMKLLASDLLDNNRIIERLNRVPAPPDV
Protocol: as §1

PKN1 = PKN1 (Homo sapiens, UniProt Q16512)
Sequence of PKN1 (Q16512 whole entry): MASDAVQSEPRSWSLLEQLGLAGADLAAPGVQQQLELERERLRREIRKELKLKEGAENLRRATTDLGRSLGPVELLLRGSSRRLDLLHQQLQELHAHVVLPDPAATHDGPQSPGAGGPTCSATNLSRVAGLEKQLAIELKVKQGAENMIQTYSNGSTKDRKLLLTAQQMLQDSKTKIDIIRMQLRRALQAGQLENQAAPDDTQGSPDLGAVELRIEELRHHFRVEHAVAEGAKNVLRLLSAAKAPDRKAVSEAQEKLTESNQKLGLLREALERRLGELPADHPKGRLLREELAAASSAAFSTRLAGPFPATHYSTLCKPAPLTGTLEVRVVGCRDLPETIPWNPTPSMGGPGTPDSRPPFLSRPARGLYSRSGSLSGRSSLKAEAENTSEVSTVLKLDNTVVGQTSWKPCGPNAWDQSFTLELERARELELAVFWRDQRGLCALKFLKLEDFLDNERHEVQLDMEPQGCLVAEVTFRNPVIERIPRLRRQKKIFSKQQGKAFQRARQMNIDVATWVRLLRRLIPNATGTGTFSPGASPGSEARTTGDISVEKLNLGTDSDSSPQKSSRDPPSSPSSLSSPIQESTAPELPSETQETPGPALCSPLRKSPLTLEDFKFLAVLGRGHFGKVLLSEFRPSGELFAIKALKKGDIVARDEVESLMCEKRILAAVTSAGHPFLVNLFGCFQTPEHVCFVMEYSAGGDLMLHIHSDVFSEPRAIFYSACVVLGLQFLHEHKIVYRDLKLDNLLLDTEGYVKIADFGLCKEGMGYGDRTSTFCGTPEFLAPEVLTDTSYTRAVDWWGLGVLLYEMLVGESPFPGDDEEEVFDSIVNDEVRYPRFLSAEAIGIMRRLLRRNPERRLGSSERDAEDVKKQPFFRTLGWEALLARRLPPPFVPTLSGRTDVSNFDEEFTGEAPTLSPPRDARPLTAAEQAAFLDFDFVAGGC
Protocol: as §1

Sequence of MPSK1 (O75716 whole entry): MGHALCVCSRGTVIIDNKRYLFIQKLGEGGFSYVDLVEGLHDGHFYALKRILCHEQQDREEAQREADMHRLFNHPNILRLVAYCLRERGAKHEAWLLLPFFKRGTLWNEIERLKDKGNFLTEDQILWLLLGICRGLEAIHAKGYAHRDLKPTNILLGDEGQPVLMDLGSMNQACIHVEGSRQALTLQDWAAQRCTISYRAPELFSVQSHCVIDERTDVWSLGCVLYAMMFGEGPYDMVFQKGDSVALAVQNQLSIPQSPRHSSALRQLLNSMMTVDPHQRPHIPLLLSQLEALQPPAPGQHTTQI

SMILES: CS(=O)(=O)Nc1ccccc1Nc1nc(Nc2cccc(OCCN)c2)ncc1Cl [CZC31326, N-(2-(2-(3-(2-aminoethoxy)phenylamino)-5-chloropyrimidin-4-ylamino)phenyl)methanesulfonamide]
- inhibition at 10 µM (MPSK1): 91.5%
- inhibition at 10 µM (CDK5): 92.6%
- inhibition at 10 µM (TAO3): 94.4%
- inhibition at 10 µM (PIP5K2A): 95%
- inhibition at 10 µM (FER): 95.3%
- inhibition at 10 µM (Erk1): 77.8%
- inhibition at 10 µM (IKKe): 89.7%
- inhibition at 10 µM (PKN1): 93.7%
